Laboratory results taken from patent EP3138565A1, “METHOD FOR TREATING A TUMOUR DISEASE AND METHOD FOR SELECTIVELY INHIBITING TUMOUR CELL GROWTH USING A QUINOXALINE-1,4-DIOXIDE DERIVATIVE” (OOO "A-Laboratory", priority 2014, dated 2015).

Tests used:
[1] = test system: K562 leukemic cells; assay: Antiproliferative activity on leukemia cells; assay type: cell-based; settings: Homo sapiens
Procedure: (§1) Comparative study of cytotoxicity of 6,7-difluoro-3-phenyl-2-cyanoquinoxaline 1,4-dioxide (compound of formula 7), which is the subject if the present invention, was performed also on a culture of tumor […] leukemia K562 cells and its resistant subline K562/4 expressing p-glycoprotein. Expression of such ATP-dependent transporters on cell surface is one of the most common mechanisms of the multidrug resistance development in tumors [Shtil A.A., Grinchuk T.M., et. al. Int. J. Oncol., 2000, 17, 387]. Data of these studies, including the IC50 values of reference compounds, the previously described quinoxaline 1,4-dioxide of formula 6, and doxorubicin, as well as the resistance index value (RI is the ratio between the IC50 values of the K562/4 subline and IC50 of the K562 line) are presented in Table 2.

[2] = test system: K562/4; assay: Antiproliferative activity on multidrug-resistant subline expressing p-glycoprotein; assay type: cell-based; settings: for IC50: Homo sapiens, K562/4 subline with multidrug resistance caused by p-gp expression; for RI, resistance index: RI = IC50(K562/4)/IC50(K562)
Procedure: as §1

[3] = test system: normal human embryo lung fibroblasts (HELF); assay: MTT test, cytotoxicity on non-tumor cells (selectivity control); assay type: cell-based; settings: HELF; non-tumor human embryo lung fibroblasts, MTT test; read-out: IC50, µM HEFL
Procedure: (§2) Comparative study of cytotoxicity of 6,7-difluoro-3-phenyl-2-cyanoquinoxaline 1,4-dioxide (compound 7 obtained according to a method described in the Example 1) and the previously known 6,7-nonsubstituted analogue 6 (obtained earlier by a method described by [Hu Y. etal. Molecules 2012, 17, 9683]) was performed in in vitro tests on cells of human solid tumors, as well as normal human embryo lung fibroblasts (HELF) to control selectivity. IC50 values were determined by the MTT test according to a protocol described in the literature [Mossman T.J. Immunol. Methods, 1983, 65, 55]. Table 1. Antiproliferative activity (IC50, µM) of quinoxaline 1,4-dioxides 6 and 7 with respect to human solid tumor cells and non-tumor human embryo lung fibroblasts (HELF)

[4] = test system: MSF7; assay: MTT test, antiproliferative activity; assay type: cell-based; settings: MSF7 human solid tumor cells
Procedure: as §2

[5] = test system: HCT116; assay: MTT test, antiproliferative activity; assay type: cell-based, human; settings: for IC50: HCT-116, HCT116 human solid tumor cells, MTT test
Procedure: as §2

[6] = MTT test, cytotoxicity on non-tumor cells (selectivity control); assay type: cell-based; settings: tumor cells of different genesis vs non-tumor human fibroblasts; read-out: cytotoxicity with respect to tumor cells higher than against the non-tumor human fibroblast cells (selectivity)
Procedure: as §2

[7] = test system: human tumor cells of various genesis; assay: Apoptosis induction in tumor cells under normoxia; assay type: cell-based; settings: submicromolar concentrations, all studied types of human tumor cells
[8] = test system: animal tumor models; assay: Antitumor effect on animal tumor models; assay type: in vivo; settings: no data given

For `COc1cccc2c1C(=O)c1c(O)c3c(c(O)c1C2=O)C[C@@](O)(C(=O)CO)C[C@@H]3O[C@H]1C[C@H](N)[C@H](O)[C@H](C)O1` [Doxorubicin, reference compound], the IC50 [1] was 0.18 ± 0.03 µM, the IC50 [2] was 18.4 ± 2.2 µM and the “RI, resistance index” value [2] was 102.2.
`N#Cc1c(-c2ccccc2)[n+]([O-])c2ccccc2[n+]1[O-]` [Compound 6, reference compound] gave an IC50 [1] of 5.2 ± 0.78 µM, an IC50 [3] of 25.2 ± 5.1 µM and an IC50 [4] of 15.5 ± 0.98 µM. The IC50 [2] was 33 ± 4 µM, the “RI, resistance index” value [2] was 6.3 and the IC50 [5] was 8.4 ± 0.8 µM.
With `N#Cc1c(-c2ccccc2)[n+]([O-])c2cc(F)c(F)cc2[n+]1[O-]` [Compound 7, 6,7-difluoro-3-phenyl-2-cyanoquinoxaline 1,4-dioxide] the IC50 [1] was 0.15 ± 0.02 µM, the IC50 [3] was 44 ± 1.9 µM and the selectivity ratio [6] was 200 to 300. For the same molecule, the apoptosis induction [7] was “induced apoptosis”, the IC50 [4] was 0.1 ± 0.02 µM and the IC50 [2] was 0.3 ± 0.05 µM. For the same molecule, the “activity toward K562/4 cells surpassing analogue of formula 6” value ([2]; K562/4, versus closest analogue of formula 6) was 100 fold, the “activity toward K562/4 cells surpassing doxorubicin” value ([2]; K562/4, versus reference preparation doxorubicin) was roughly 50 fold and the “RI, resistance index” value [2] was 2.0. For the same molecule, the “resistance index (RI) lower than doxorubicin” value ([2]; RI of compound versus RI of doxorubicin) was roughly 50 fold, the IC50 [5] was 0.6 ± 0.03 µM and the “growth-inhibiting concentrations relative to the closest analogue of formula 6” value ([5]; all tested tumor cell lines) was “two orders of magnitude lower”. The antitumor effect [8] was “reliable antitumor effect”.
